Experimental data: patent US8853242B2, “Nitrogenous-ring acylguanidine derivative” (Astellas Pharma Inc., priority 2009, dated 2014)

Target: human 5-HT5A receptor (Homo sapiens (Human), UniProt P47898)
Assay: Test on a human 5-HT5A receptor binding inhibition ([3H]5-CT)
Conditions: membrane from HEK293 cells expressing human 5-HT5A receptor, Ki calculated from IC50
Method: The ORF (open reading frame; protein coding region) of a human 5-HT5A receptor (Genbank AF498985) was cloned from a human hippocampus cDNA library, and then inserted into a pCR2.1 vector (Invitrogen), and Escherichia coli containing the plasmid was cultured in a large amount. Next, the full-length cDNA sequence of the human 5-HT5A receptor was analyzed, and recombined into a pCDNA3.1 vector (Invitrogen) as an expression vector and cultured in a large amount. HEK293 established cells (ATCC) derived from the human fetal kidney were seeded, the expression plasmid (1 μg) obtained above were added thereto with LIPOFECTAMINE 2000 (Invitrogen; 2 μl), the gene was transfected into HEK293 cells, and the expression cells were screened with a drug-resistant marker, Geneticin (G418 sulfate 500 μg/ml; Kanto Chemical Co., Inc.). Thus prepared recombinant cells which expressed the gene were cultured in a medium containing D-MEM (Dulbecco's modified eagle medium, Sigma), 10% FCS (Fetal calf serum: fetal bovine serum), 1% Pc./Sm (Penicillin/Streptomycin, Invitrogen), and 500 μg/ml G418 for 3 days. These experimental operations followed a manual for gene operation experiment and an instruction appended in a reagent, and the like, such as a known method (Sambrook, J. et al, Molecular Cloning-A Laboratory Manual”, Cold Spring Harabor laboratory, NY, 1989).
HEK293 cells for forced expressions of a human 5-HT5A receptor were cultured in a F500 plate, and scraped with a scraper. After centrifugation, the precipitate was collected, and an incubation buffer (50 mM Tris (HCl) (pH 7.4), 10 mM MgSO4, and 0.5 mM EDTA (ethylenediamine tetraacetic acid)) was added thereto. After homogenization, it was further centrifuged, and the incubation buffer was added to the precipitate, followed by thoroughly suspending. The operation was repeated, and protein concentration was measured, thereby completing preparation of the membrane.
A solution of the compound to be tested and 100 μM 5-CT (5-carboxamidetriptamine) in DMSO was added to a 96-well plate at 2 μl/well, suspended in an incubation buffer, and a membrane from HEK293 cells for forced expressions of a human 5-HT5A receptor prepared at 200 μg/ml was added at 100 μl/well. After incubation at room temperature for 15 minutes, a [^3H]5-CT solution (2 nM [^3H]5-CT, incubation buffer) was added thereto at 100 μl/well.
Separately, 100 μl of the solution was distributed into a liquid scintillation vial, and 2 ml of Aquasol II (registered trademark) was added thereto, followed by stirring. Then, radioactivity was measured by a liquid scintillation counter. It was incubated at 37° C. for 60 minutes. The reaction mixture was sucked into 96-well GF/C filter plate that had been pre-treated with 0.2% polyethyleneimine, and washed six times with an ice-cooled, 50 mM Tris (pH 7.5) buffer. The GF/C filter plate was dried.
Microscint TMPS (registered trademark) was added thereto at 40 μl/well. Radioactivity remaining on the GF/C filter plate was measured by a top counter.
The [^3H]5-CT binding inhibiting activity by the compound to be tested in each experiment was determined as an IC50 value with a radioactivity upon addition of DMSO alone being 0% inhibition, and a radioactivity upon addition of 1 μM 5-CT being 100% inhibition. Separately, Ki values were calculated from the Kd value of the [^3H]5-CT determined from Scatchard analysis, by the following equation. Ki=IC50(1+Concentraion of ligand added/Kd(4.95 nM))

Chain of human 5-HT5A receptor (P47898 whole entry): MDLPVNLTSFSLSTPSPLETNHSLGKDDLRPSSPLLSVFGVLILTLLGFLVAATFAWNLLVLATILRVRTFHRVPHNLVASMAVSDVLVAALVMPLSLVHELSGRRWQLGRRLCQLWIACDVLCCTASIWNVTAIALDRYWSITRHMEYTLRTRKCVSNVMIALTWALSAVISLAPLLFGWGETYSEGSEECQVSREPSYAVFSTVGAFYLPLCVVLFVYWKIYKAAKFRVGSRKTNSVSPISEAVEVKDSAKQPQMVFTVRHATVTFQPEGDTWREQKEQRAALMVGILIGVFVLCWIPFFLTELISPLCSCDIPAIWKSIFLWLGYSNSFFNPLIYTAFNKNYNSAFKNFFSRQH

Row | Ki ([3H]5-CT binding) | Ki ([3H]5-CT binding inhibition) | Compound
1 | 10 to 100 nM |  | Cc1cc(C(=O)N=C(N)N)cc2c(-c3ccc(Cl)cc3Cl)ccnc12 [Example 45]
2 | 1 to 10 nM |  | Cc1cc(C(=O)N=C(N)N)cc2c(-c3cccc(Cl)c3Cl)ccnc12 [Example 46]
3 | 1 to 10 nM |  | Cc1cnc2ccc(C(=O)N=C(N)N)cc2c1-c1ccccc1F [Example 51]
4 | 1 to 10 nM |  | Cc1cc(C(=O)N=C(N)N)cc2c(-c3c(Cl)cccc3Cl)ccnc12 [Example 55]
5 | 1 to 10 nM |  | Cc1cnc2ccc(C(=O)N=C(N)N)cc2c1-c1cccc(F)c1Cl [Example 61]
6 | 10 to 100 nM |  | NC(N)=NC(=O)c1ccc2nccc(-c3cc(F)ccc3Cl)c2c1 [Example 63]
7 | 10 to 100 nM |  | Cc1cc(C(=O)N=C(N)N)cc2c(-c3cc(F)ccc3Cl)ccnc12 [Example 64]
8 | 10 to 100 nM |  | Cc1ccc(-c2ccnc3c(C)cc(C(=O)N=C(N)N)cc23)c(F)c1 [Example 68]
9 | 1 to 10 nM |  | NC(N)=NC(=O)c1ccc2ncc(Cl)c(-c3ccccc3F)c2c1 [Example 69]
10 | 1 to 10 nM |  | NC(N)=NC(=O)c1ccc2ncc(Cl)c(-c3ccccc3)c2c1 [Example 74]
11 | 10 to 100 nM |  | CCc1cc(-c2c(F)cc(F)cc2F)c2cc(C(=O)N=C(N)N)ccc2n1 [Example 87]
12 | 1 to 10 nM |  | Cc1cc(-c2ccc(F)cc2Cl)c2cc(C(=O)N=C(N)N)cc(C)c2n1 [Example 91]
13 | 100 to 300 nM |  | NC(N)=NC(=O)c1ccc2nc(C(F)(F)F)cc(-c3ccc(F)cc3F)c2c1 [Example 92]
14 | 1 to 10 nM |  | NC(N)=NC(=O)c1ccc2ncc(Cl)c(C3=CCCCC3)c2c1 [Example 102]
15 | 10 to 100 nM |  | Cc1cc(C(=O)N=C(N)N)cc2c(C3CC3)c(Cl)cnc12 [Example 103]
16 | 10 to 100 nM |  | Cc1nc2ccc(C(=O)N=C(N)N)cc2c(-c2ccccc2F)c1C [Example 105]
17 | 10 to 100 nM |  | COc1ncccc1-c1c(Cl)cnc2ccc(C(=O)N=C(N)N)cc12 [Example 106]
18 | 10 to 100 nM |  | COc1cc(C#N)ccc1-c1c(C)c(C)nc2ccc(C(=O)N=C(N)N)cc12 [Example 120]
19 | 10 to 100 nM |  | Cc1nc2ccc(C(=O)N=C(N)N)cc2c(-c2ccccc2Cl)c1C [Example 122]
20 | 1 to 10 nM |  | Cc1nc2ccc(C(=O)N=C(N)N)cc2c(-c2c(F)cccc2F)c1F [Example 123]
21 | 10 to 100 nM |  | Cc1cc(-c2c(F)cc(F)cc2Cl)c2cc(C(=O)N=C(N)N)ccc2n1 [Example 124]
22 | 10 to 100 nM |  | Cc1nc2ccc(C(=O)N=C(N)N)cc2c(-c2ccncc2Cl)c1C [Example 127]
23 | 10 to 100 nM |  | COc1cccc(F)c1-c1c(C)c(C)nc2ccc(C(=O)N=C(N)N)cc12 [Example 129]
24 | 10 to 100 nM |  | Cc1nc2ccc(C(=O)N=C(N)N)cc2c(-c2c(F)cncc2F)c1C [Example 131]
25 | 1 to 10 nM |  | Cc1nc2ccc(C(=O)N=C(N)N)cc2c(-c2ccc(F)cc2Cl)c1Cl [Example 132]
26 | 100 to 300 nM |  | N#Cc1ccccc1-c1nccc2ccc(C(=O)N=C(N)N)cc12 [Example 139]
27 | 10 to 100 nM |  | N#Cc1cnc(-c2c(F)cc(F)cc2F)c2cc(C(=O)N=C(N)N)ccc12 [Example 143]
28 |  | 1.6 nM | NC(N)=NC(=O)c1ccc2c(F)cnc(-c3c(F)cccc3Cl)c2c1 [Example 147]
29 |  | 4.1 nM | NC(N)=NC(=O)c1ccc2c(F)cnc(-c3ccc(F)cc3Cl)c2c1 [Example 151]

Second part, the compound before the results:

Row | Compound | Ki ([3H]5-CT binding) | Ki ([3H]5-CT binding inhibition)
30 | NC(N)=NC(=O)c1ccc2nccc(-c3c(F)cncc3F)c2c1 [Example 52] | 10 to 100 nM | 
31 | NC(N)=NC(=O)c1cc(F)c2nccc(-c3c(F)cc(F)cc3F)c2c1 [Example 54] | 10 to 100 nM | 
32 | COc1cc(F)c(-c2ccnc3c(C)cc(C(=O)N=C(N)N)cc23)c(F)c1 [Example 58] | 1 to 10 nM | 
33 | COc1cc(F)c(-c2ccnc3ccc(C(=O)N=C(N)N)cc23)c(F)c1 [Example 59] | 10 to 100 nM | 
34 | NC(N)=NC(=O)c1ccc2ncc(Cl)c(-c3ccc(F)cc3F)c2c1 [Example 60] |  | 1.3 nM
35 | NC(N)=NC(=O)c1ccc2nccc(C3=CCCCC3)c2c1 [Example 62] | 1 to 10 nM | 
36 | Cc1cc(C(=O)N=C(N)N)cc2c(-c3c(F)cc(F)cc3Cl)ccnc12 [Example 65] | 1 to 10 nM | 
37 | Cc1cc(C(=O)N=C(N)N)cc2c(-c3ccc(Cl)cc3F)ccnc12 [Example 67] | 1 to 10 nM | 
38 | COc1ccc(-c2ccnc3c(C)cc(C(=O)N=C(N)N)cc23)c(Cl)c1 [Example 70] | 1 to 10 nM | 
39 | Cc1cc(C(=O)N=C(N)N)cc2c(C3CC3)ccnc12 [Example 71] | 10 to 100 nM | 
40 | Cc1cc(C(=O)N=C(N)N)cc2c(C3=CCCC3)ccnc12 [Example 75] | 10 to 100 nM | 
41 | NC(N)=NC(=O)c1ccc2ncc(Cl)c(C3CC3)c2c1 [Example 76] | 10 to 100 nM | 
42 | COc1cc(Cl)ccc1-c1ccnc2c(C)cc(C(=O)N=C(N)N)cc12 [Example 77] | 1 to 10 nM | 
43 | COc1ccc(F)c(-c2ccnc3c(C)cc(C(=O)N=C(N)N)cc23)c1F [Example 78] | 10 to 100 nM | 
44 | Cc1cc(-c2ccccc2F)c2cc(C(=O)N=C(N)N)ccc2n1 [Example 82] | 10 to 100 nM | 
45 | Cc1cc(-c2c(F)cc(F)cc2F)c2cc(C(=O)N=C(N)N)cc(C)c2n1 [Example 83] | 1 to 10 nM | 
46 | Cc1cc(-c2ccc(F)cc2F)c2cc(C(=O)N=C(N)N)cc(C)c2n1 [Example 85] | 1 to 10 nM | 
47 | NC(N)=NC(=O)c1ccc2ncc(C(F)(F)F)c(-c3ccc(F)cc3F)c2c1 [Example 86] | 10 to 100 nM | 
48 | Cc1nc2ccc(C(=O)N=C(N)N)cc2c(-c2ccc(F)cc2F)c1Cl [Example 88] | 1 to 10 nM | 
49 | Cc1nc2ccc(C(=O)N=C(N)N)cc2c(-c2ccccc2F)c1Cl [Example 89] | 1 to 10 nM | 
50 | NC(N)=NC(=O)c1ccc2nc(C(F)(F)F)cc(-c3c(F)cc(F)cc3F)c2c1 [Example 90] | 10 to 100 nM | 

Row | Compound | Ki ([3H]5-CT binding) | Ki ([3H]5-CT binding inhibition)
51 | COc1ccc(-c2c(Cl)cnc3ccc(C(=O)N=C(N)N)cc23)cc1 [Example 93] | 1 to 10 nM | 
52 | Cc1cc(C(=O)N=C(N)N)cc2c(-c3ccc(F)cc3F)c(Cl)cnc12 [Example 99] | 1 to 10 nM | 
53 | NC(N)=NC(=O)c1ccc2c(Cl)cnc(-c3cccc(Cl)c3Cl)c2c1 [Example 100] | 10 to 100 nM | 
54 | Cc1cc(C(=O)N=C(N)N)cc2c(-c3ccccc3F)c(Cl)cnc12 [Example 101] | 1 to 10 nM | 
55 | NC(N)=NC(=O)c1ccc2ncc(Cl)c(-c3ccncc3F)c2c1 [Example 104] | 1 to 10 nM | 
56 | NC(N)=NC(=O)c1ccc2ncc(Cl)c(C3=CCCC3)c2c1 [Example 107] | 1 to 10 nM | 
57 | Cc1nc2ccc(C(=O)N=C(N)N)cc2c(-c2c(F)cc(F)cc2F)c1C [Example 114] |  | 3.7 nM
58 | Cc1nc2ccc(C(=O)N=C(N)N)cc2c(-c2c(F)cccc2F)c1C [Example 117] | 1 to 10 nM | 
59 | Cc1nc2ccc(C(=O)N=C(N)N)cc2c(-c2ccc(F)cc2)c1C [Example 118] | 10 to 100 nM | 
60 | Cc1nc2ccc(C(=O)N=C(N)N)cc2c(-c2c(F)cccc2Cl)c1C [Example 121] | 1 to 10 nM | 
61 | Cc1nc2ccc(C(=O)N=C(N)N)cc2c(-c2ccccc2F)c1F [Example 125] | 10 to 100 nM | 
62 | Cc1nc2ccc(C(=O)N=C(N)N)cc2c(-c2ccc(F)cc2Cl)c1C [Example 126] | 1 to 10 nM | 
63 | Cc1nc2ccc(C(=O)N=C(N)N)cc2c(-c2ccccc2Cl)c1Cl [Example 130] | 1 to 10 nM | 
64 | NC(N)=NC(=O)c1ccc2ccnc(-c3ccccc3)c2c1 [Example 133] | 10 to 100 nM | 
65 | NC(N)=NC(=O)c1ccc2ccnc(-c3c(F)cccc3Cl)c2c1 [Example 134] | 1 to 10 nM | 
66 | NC(N)=NC(=O)c1ccc2ccnc(-c3ccc(Cl)cc3Cl)c2c1 [Example 138] | 1 to 10 nM | 
67 | N#Cc1cc(Cl)ccc1-c1nccc2ccc(C(=O)N=C(N)N)cc12 [Example 140] | 10 to 100 nM | 
68 | N#Cc1ccc(-c2nccc3ccc(C(=O)N=C(N)N)cc23)c(F)c1 [Example 141] | 1 to 10 nM | 
69 | NC(N)=NC(=O)c1ccc2c(Cl)cnc(-c3c(F)cc(F)cc3F)c2c1 [Example 142] | 1 to 10 nM | 
70 | NC(N)=NC(=O)c1ccc2c(F)cnc(-c3c(F)cc(F)cc3F)c2c1 [Example 144] | 1 to 10 nM | 
